Results published in patent US7378404B2, “8β-hydrocarbyl-substituted estratrienes for use as selective estrogens” (priority 2000, dated 2008).

Assays:
[1] = system: estrogen receptor of rat prostates; assay: Competitive binding with 3H-estradiol to estrogen receptor preparation of rat prostate cytosol; conditions: for Rat prost. ER (RBA): Table 1, estradiol = 100; for RBA Rat Prostate: Table 2; for binding affinity to estrogen receptor of rat prostates compared with estrogen receptor of rat uteri: rat prostate ER versus rat uterus ER
[2] = biological target: T1, estrogen receptor of rat uteri (Rattus norvegicus, UniProt P06211); assay: Competitive binding with 3H-estradiol to estrogen receptor preparation of rat uterus cytosol; conditions: for RBA Rat Uterus: Table 2
T1 construct: The preparation of rat uterus cytosol as well as the receptor test with the ER-containing cytosol; from tissue; host or cells: rat uterus cytosol
T1 sequence (P06211 1-600): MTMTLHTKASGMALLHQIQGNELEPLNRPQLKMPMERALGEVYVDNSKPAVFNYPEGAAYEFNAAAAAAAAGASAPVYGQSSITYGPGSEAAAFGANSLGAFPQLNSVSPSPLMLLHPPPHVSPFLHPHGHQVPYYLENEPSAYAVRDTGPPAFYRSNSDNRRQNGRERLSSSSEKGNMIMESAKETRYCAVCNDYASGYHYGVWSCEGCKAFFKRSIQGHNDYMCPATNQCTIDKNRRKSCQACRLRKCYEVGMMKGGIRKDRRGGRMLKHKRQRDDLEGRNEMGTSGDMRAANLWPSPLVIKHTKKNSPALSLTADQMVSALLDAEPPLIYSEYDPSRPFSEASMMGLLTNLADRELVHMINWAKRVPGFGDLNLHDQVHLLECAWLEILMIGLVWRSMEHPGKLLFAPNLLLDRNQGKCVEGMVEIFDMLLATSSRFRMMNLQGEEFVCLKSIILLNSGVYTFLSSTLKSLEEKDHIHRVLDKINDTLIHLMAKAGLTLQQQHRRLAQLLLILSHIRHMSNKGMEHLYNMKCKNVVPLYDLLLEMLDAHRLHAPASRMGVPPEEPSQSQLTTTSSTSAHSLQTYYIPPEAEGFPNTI

[3] = system: 5HT2a-receptor and serotonin transporter; assay: Expression of 5HT2a-receptor and serotonin transporter in ERβ-rich brain areas after one-time administration in rats; assay type: in vivo; conditions: rat brain
Description: Compared to the effect on the serotonin receptor and transporter expression, the effect on the LH-secretion is measured. […] The density of serotonin receptors and transporters is determined in brain sections using radioactive ligands, and the corresponding mRNA is determined using in situ hybridization. The method is described in the literature: G. Fink & B. E. H. Sumner 1996 Nature 383: 306; B. E. H. Sumner et al. 1999 Molecular Brain Research, in press.

hERβ [4] = conditions: estradiol = 100; cited from earlier work
hERβ [5] = assay: Relative binding affinity (RBA) to hERβ, cited from Kuiper et al.; design: species or system human; conditions: quotient of RBA hERβ / hERα
Text: In this case, it is assumed that ERβ predominates in the rat prostates over ERα, and ERα predominates in rat uteri over ERβ.

Row | Compound | Rat prost. ER (RBA) [1] | RBA Rat Prostate [1] | binding affinity to estrogen receptor of rat prostates compared with estrogen receptor of rat uteri [1] | RBA Rat Uterus [2] | expression of the serotonin receptor and transporter [3] | other results
1 | O=c1c(-c2ccc(O)cc2)coc2cc(O)cc(O)c12 [Genisteine, reference compound] | 10 |  |  |  |  | 
2 | C[C@@]12CCc3cc(O)ccc3[C@H]1CC[C@@]1(C)[C@H]2CC[C@@H]1O [D, 8β-methyl-estra-1,3,5(10)-triene-3,17β-diol] |  | 67 | higher binding affinity | 1.3 | increased expression | 
3 | C[C@]12CC[C@@H]3c4ccc(O)cc4CC[C@@]3(C=C(F)F)[C@@H]1CC[C@@H]2O [C, 8β-(2,2-difluorovinyl)-estra-1,3,5(10)-triene-3,17β-diol] |  | 5 | higher binding affinity | 0.9 | increased expression | 
4 | C[C@]12CC[C@@H]3c4ccc(O)cc4CC[C@H]3[C@@H]1C[C@@H](O)[C@@H]2O [Estriol] |  |  |  |  |  | hERβ RBA (hERβ [4]): 21
5 | COc1ccc2c(c1)CC[C@]1(C)C2=CC[C@@]2(C)[C@H]1CC[C@@H]2O |  |  |  |  |  | melting point: 168 °C
6 | C[C@]12CC[C@@H]3c4ccc(O)cc4CC[C@H]3[C@@H]1CC[C@H]2O [17α-Estradiol, reference compound] | 1.3 |  |  |  |  | 
7 | C=C[C@@]12CCc3cc(O)ccc3C1=CC[C@@]1(C)[C@H]2CC[C@@H]1O [A, 8β-Vinyl-estra-1,3,5(10),9(11)-tetraene-3,17β-diol] |  | 83 | higher binding affinity | 1 | increased expression | 
8 | C[C@]12CC[C@H]3[C@@H](CC=C4C[C@@H](O)CC[C@@]43C)[C@@H]1CC[C@@H]2O [5-Androstenediol, reference compound] | 5 |  |  |  |  | prost. ER/uterus ER ([1]; ratio of RBA rat prostate ER / rat uterus ER): 50; ERβ/ERα (hERβ [5]): 3; hERβ RBA (hERβ [4]): 17; Rat uterus ER (RBA) ([2]; Table 1, estradiol = 100): 0.1
9 | CC[C@@]12CCc3cc(O)ccc3[C@H]1CC[C@@]1(C)[C@H]2CC[C@@H]1O [E, 8β-ethyl-estra-1,3,5(10)-triene-3,17β-diol] |  | 7 | higher binding affinity | <0.3 | increased expression | 
10 | C=C[C@@]12CCc3cc(O)ccc3[C@H]1CC[C@@]1(C)[C@H]2CC[C@@H]1O [B, 8β-vinyl-estra-1,3,5(10)-triene-3,17β-diol] |  | 63 | higher binding affinity | 0.7 | increased expression | 
